Values quoted from earlier work, collected in patent US20080305186A1, “Method and Composition for the Treatment of Cardiac Hypertrophy” (BOARD OF REGENTS, THE UNIVERSITY OF TEXAS SYSTEM, priority 2007, published 2008).

Columns and labels:
[1] = test system: isoproterenol-, angiotensin II- and aortic banding induced cardiac hypertrophy; details: cited from earlier work
Histone Deacetylase = details: cited from earlier work

Structure (SMILES): CCCC(CCC)C(=O)O [valproic acid]
- attenuation of cardiac hypertrophy [1]: attenuate
- inhibition of Histone Deacetylase (HDAC) (Histone Deacetylase): inhibit HDAC
